Data from the supplement of paper PMC10307832.

Columns and labels:
Test in all cases: relative viability (nuclei count vs DMSO), 5 days (fraction); higher = more cells survive
Lapatinib + Navitoclax = compound: CS(=O)(=O)CCNCc1ccc(-c2ccc3ncnc(Nc4ccc(OCc5cccc(F)c5)c(Cl)c4)c3c2)o1 [Lapatinib] + CC1(C)CCC(c2ccc(Cl)cc2)=C(CN2CCN(c3ccc(C(=O)NS(=O)(=O)c4ccc(N[C@H](CCN5CCOCC5)CSc5ccccc5)c(S(=O)(=O)C(F)(F)F)c4)cc3)CC2)C1 [Navitoclax] (partner 0.5 µM)
Procedure, shortened: (§1)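 Relative viability equals treated-well nuclei counts divided by vehicle-well nuclei counts. Counts came from 4× images of lung cancer cell lines grown in 1536-well plates for 5 days after pin-tool dosing on the day after seeding. Dosing used one drug alone or a fixed anchor-drug dose plus five library-drug doses (not always all listed) in √10 steps, and values are medians of duplicate plates.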

Lapatinib + AZD7762 = compound: CS(=O)(=O)CCNCc1ccc(-c2ccc3ncnc(Nc4ccc(OCc5cccc(F)c5)c(Cl)c4)c3c2)o1 [Lapatinib] + NC(=O)Nc1cc(-c2cccc(F)c2)sc1C(=O)N[C@H]1CCCNC1 [AZD7762] (partner 0.2 µM)
Procedure, shortened: as §1

Wnt-C59 + Linsitinib = compound: CC1=NC=CC(=C1)C2=CC=C(C=C2)CC(=O)NC3=CC=C(C=C3)C4=CN=CC=C4 [Wnt-C59] + C[C@]1(O)C[C@@H](c2nc(-c3ccc4ccc(-c5ccccc5)nc4c3)c3c(N)nccn32)C1 [Linsitinib] (partner 1 µM)
Procedure, shortened: as §1

Wnt-C59 + Bortezomib = compound: CC1=NC=CC(=C1)C2=CC=C(C=C2)CC(=O)NC3=CC=C(C=C3)C4=CN=CC=C4 [Wnt-C59] + CC(C)C[C@H](NC(=O)[C@H](Cc1ccccc1)NC(=O)c1cnccn1)B(O)O [Bortezomib] (partner 0.002 µM)
Procedure, shortened: as §1

Cell Line | relative viability (Lapatinib + Navitoclax; first compound 0.02 µM) | relative viability (Lapatinib + Navitoclax; first compound 0.06325 µM) | relative viability (Lapatinib + Navitoclax; first compound 0.2 µM) | relative viability (Lapatinib + Navitoclax; first compound 0.6325 µM) | relative viability (Lapatinib + Navitoclax; first compound 2 µM) | relative viability (Lapatinib + AZD7762; first compound 0.02 µM) | relative viability (Lapatinib + AZD7762; first compound 0.06325 µM) | relative viability (Lapatinib + AZD7762; first compound 0.2 µM) | relative viability (Lapatinib + AZD7762; first compound 0.6325 µM) | relative viability (Lapatinib + AZD7762; first compound 2 µM) | relative viability (Wnt-C59 + Linsitinib; first compound 0.001 µM) | relative viability (Wnt-C59 + Linsitinib; first compound 0.01 µM) | relative viability (Wnt-C59 + Linsitinib; first compound 0.03162 µM) | relative viability (Wnt-C59 + Linsitinib; first compound 0.1 µM) | relative viability (Wnt-C59 + Bortezomib; first compound 0.001 µM) | relative viability (Wnt-C59 + Bortezomib; first compound 0.01 µM) | relative viability (Wnt-C59 + Bortezomib; first compound 0.03162 µM) | relative viability (Wnt-C59 + Bortezomib; first compound 0.1 µM)
201T | 1.16 | 1.22 | 1.16 | 1.22 | 1.2 | 0.513 | 0.585 | 0.601 | 0.591 | 0.608 | 1.02 | 1.04 | 1.06 | 1.04 | 1.14 | 1.08 | 1.13 | 1.13
A549 | 1.12 | 1.13 | 1.22 | 1.21 | 1.21 | – | – | – | – | – | 0.568 | 0.498 | 0.555 | 0.504 | – | – | – | –
A-427 | – | 0.977 | 0.885 | 0.933 | 0.957 | 0.709 | 0.658 | 0.745 | 0.793 | 0.681 | 1.12 | 1.05 | 1.14 | 1.06 | 0.98 | 1.01 | 1 | 0.979
ABC-1 | – | – | – | – | – | – | 0.73 | 0.821 | 0.774 | 1.07 | 0.909 | 0.759 | 0.774 | 0.702 | 0.266 | 0.171 | 0.33 | 0.306
BEN | 0.0643 | 0.0706 | 0.061 | 0.0751 | 0.0557 | 0.499 | 0.704 | 0.587 | 0.855 | 0.556 | 0.915 | 0.948 | 1.02 | 0.88 | 0.821 | 0.88 | 1.03 | 0.878
CAL-12T | 1.18 | 1.23 | 1.32 | 1.03 | 0.724 | – | 0.615 | 0.515 | 0.587 | 0.592 | 0.759 | 0.752 | 0.776 | 0.766 | 0.979 | – | 0.875 | 1.14
COR-L23 | 0.943 | 0.938 | 1.09 | 0.887 | 0.854 | – | – | – | – | – | 1 | 0.893 | 1.08 | 0.837 | 1.02 | 0.944 | 0.912 | 0.95
COR-L 105 | 0.701 | 0.744 | 0.77 | 0.574 | 0.302 | – | – | – | – | – | 1.26 | 0.988 | 0.765 | 0.804 | 0.579 | 0.772 | 0.685 | 0.662
Calu-6 | 0.844 | 0.812 | 0.91 | 0.819 | 0.764 | – | – | – | – | – | 0.89 | 0.9 | 0.987 | 0.955 | 0.924 | 0.99 | 1.05 | 1.07
ChaGo-K-1 | – | 1.15 | 0.781 | 0.99 | 0.457 | 0.703 | 0.805 | 0.926 | 0.942 | 0.882 | – | – | – | – | 0.767 | – | 0.892 | 1.16
EBC-1 | 0.459 | 0.361 | 0.457 | 0.337 | 0.265 | – | – | – | – | – | 0.927 | 0.912 | 0.925 | 0.814 | 0.638 | 0.617 | 0.394 | 0.591
EKVX | 0.859 | 0.916 | 0.809 | 0.77 | 0.199 | – | 0.518 | 0.693 | 0.708 | 0.663 | 1.07 | 0.846 | 1.01 | 0.757 | 1 | 0.928 | 1.06 | 0.895
EMC-BAC-2 | 1.05 | 0.984 | 1.09 | 1.02 | 0.968 | – | 0.938 | 1.05 | 1.13 | 1.18 | 0.736 | 0.642 | 0.741 | 0.709 | 0.913 | 0.926 | 0.998 | 0.943
EPLC-272H | – | 1.13 | 0.869 | 0.991 | 0.961 | – | 0.191 | 0.228 | 0.175 | 0.252 | 1.29 | 1.23 | 1.08 | 1.15 | 1 | 0.934 | 1.03 | 0.877
H3255 | 0.476 | 0.512 | 0.37 | 0.464 | 0.111 | 0.818 | 0.892 | 0.799 | 0.664 | 0.501 | 1.01 | 0.962 | 1.02 | 0.866 | 0.78 | 0.823 | 0.769 | 0.912
HARA | 1.13 | 1.18 | 1.15 | 1.08 | 0.938 | 0.174 | 0.379 | 0.51 | 0.344 | 0.247 | 1.02 | 0.865 | 1.16 | 0.899 | 1.1 | 1.01 | 1.19 | 1.15
HCC-15 | – | 0.679 | 0.704 | 0.635 | 0.599 | – | 1.09 | 1.24 | 1.24 | 1.16 | 0.922 | 0.96 | 0.856 | 0.928 | 1.01 | 1.02 | 1.03 | 0.994
